Assay [1] deals with CRH receptors (CRH-R1 and CRH-R2) in αT3-1 cells. It is filed as cell-based, murine. As to conditions: 1 mM IBMX, p<0.05; for inhibition of CRH-mediated cAMP increase: 10 μM α-helical CRH 9–41 or 1 μM astressin with 100 nM CRH, 3 min; for inhibition of UCN1-mediated cAMP increase: 10 μM α-helical CRH 9–41 or 1 μM astressin with 100 nM UCN1, 3 min.
The next assay concerns CRH-R2 in αT3-1 cells. The assay can be described thus: Antisauvagine. The class given is cell-based, murine. The note with it: 1 μM antisauvagine, 15 min pretreatment; for effect of antisauvagine alone on cAMP: versus vehicle.
Assay [2] has as its system PACAP receptor in LβT2 gonadotrope like cell line. As to conditions: LβT2 cells; ref Lariviere, et al. 2008; cited from earlier work.
Assay [3] relates to αT3-1 cells. Nature of the assay: Total inositol phosphate levels. It is filed as cell-based, murine. The note with it: treatment alone; preliminary studies, unpublished data, A. Seasholtz.
The test system of assay [4] is αT3-1 cells. As to conditions: cited from earlier work.
The next assay concerns α-subunit in αT3-1 cells. As to conditions: ref Attardi and Winters 1998, Burrin, et al. 1998, Schomerus, et al. 1994, Tsujii, et al. 1995; cited from earlier work.

“Also recorded” adds a separate entry of the source. Like-named read-outs stand apart in the source and are kept apart here. No end group written: not given here.

For the substance “alpha-helical CRH (9–41) [α-helical CRH 9–41]”, in assay [1], the “inhibition of CRH-mediated cAMP increase” value is “reduced cAMP values to vehicle-treated levels” and the “inhibition of UCN1-mediated cAMP increase” value is on record as “reduced cAMP values to vehicle-treated levels”. Also, in assay [1] (listed as α-helical CRH 9-41), the “inhibition of CRH-mediated cAMP increase” value was “completely blocked; also recorded: completely inhibited” and the “inhibition of UCN1-mediated cAMP increase” value is recorded as “completely blocked; also recorded: completely inhibited”.

As for antisauvagine, the “repression of UCN1-mediated cAMP increase” value with CRH-R2 in αT3-1 cells (then 100 nM UCN1 3 min, partial block) came out at 75%. For the same substance, the “inhibition of UCN3-mediated cAMP increase” value in the assay with CRH-R2 in αT3-1 cells (then 100 nM UCN3 3 min, p<0.05) was “completely blocked”. Besides, the “effect of antisauvagine alone on cAMP” value with CRH-R2 in αT3-1 cells was “did not significantly differ from vehicle”; in the assay on CRH-R2 in αT3-1 cells (listed as AS), “no significant difference”.

Regarding astressin, in assay [1], the “inhibition of CRH-mediated cAMP increase” value is “completely blocked; also recorded: complete suppression; also recorded: completely inhibited; also recorded: significant repressions” and the “inhibition of UCN1-mediated cAMP increase” value was “completely blocked; also recorded: complete suppression; also recorded: completely inhibited; also recorded: significant repressions”.

As for “gonadotropin- releasing hormone (QHWSYGLRPG; Gonadoliberin-1; UniProt P01148 24-33, looked up) [GnRH]”, the “PACAP receptor phosphorylation by PKC” value in assay [2] was “stimulating PACAP receptor phosphorylation by PKC”. The “effect on total inositol phosphate levels” value in the assay on αT3-1 cells [3] was “dramatically increases total inositol phosphate levels”. For the same substance, in the assay with αT3-1 cells [4] (alone, ref McArdle and Counis 1996, McArdle, et al. 1994), the “effect on cAMP levels” value is given as “does not alter cAMP levels”.

As for “pituitary adenylyl cyclase activating polypeptide (HSDGIFTDSYSRYRKQMAVKKYLAAVLGKRYKQRVKNK-NH2; ends and bridges not checked; UniProt P18509 132-169, looked up) [PACAP]”, the “effect on cAMP levels” value in the assay on αT3-1 cells [4] (ref Attardi and Winters 1998, Burrin, et al. 1998, Schomerus, et al. 1994, Tsujii, et al. 1995) was “increase intracellular cAMP levels”. The “α-subunit transcriptional activity / mRNA / expression” value with α-subunit in αT3-1 cells is “increased transcriptional activity and steady state levels of α-subunit mRNA; also recorded: increased α-subunit expression”.

(Values after paper PMC2635417 (The Journal of endocrinology, 2008).)
